The results in this text go back to ChEMBL document CHEMBL1201862, “PubChem BioAssay data set” (2004).

One assay addresses Cytochrome P450 3A4 (Homo sapiens, UniProt P08684).
Assay [1] deals with T1, Heat shock factor protein 1 (Mus musculus, UniProt P38532).
T1 sequence (P38532 whole entry): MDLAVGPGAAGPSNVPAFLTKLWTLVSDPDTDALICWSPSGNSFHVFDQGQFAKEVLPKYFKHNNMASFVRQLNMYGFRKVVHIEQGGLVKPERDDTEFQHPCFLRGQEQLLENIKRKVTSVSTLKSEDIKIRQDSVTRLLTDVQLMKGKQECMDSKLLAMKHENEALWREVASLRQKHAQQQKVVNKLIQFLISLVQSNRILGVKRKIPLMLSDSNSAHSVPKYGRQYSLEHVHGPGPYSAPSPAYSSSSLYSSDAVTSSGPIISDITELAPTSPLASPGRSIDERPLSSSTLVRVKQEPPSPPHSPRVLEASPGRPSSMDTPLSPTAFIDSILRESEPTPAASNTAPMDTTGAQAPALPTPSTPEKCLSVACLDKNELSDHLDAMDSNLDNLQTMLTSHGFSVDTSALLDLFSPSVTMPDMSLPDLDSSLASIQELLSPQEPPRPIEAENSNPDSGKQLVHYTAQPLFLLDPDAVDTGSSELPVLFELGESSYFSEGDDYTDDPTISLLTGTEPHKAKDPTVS
The assay is described as follows: decrease of HSF1-responsive luciferase luminescence – cell-based, NIH3T3, dose retest, confirmation (AID 2382).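 Also: NIH3T3 fibroblasts with HSF1-driven luciferase reporter stressed by proteasome inhibitor MG132; luminescence from HSF1-driven luciferase expression after 8 hours of MG132 stress.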 Type of assay: functional.

Assay [2] has as its system Streptococcus sp. 'group A'. Kind of assay: Streptococcus pyogenes SK(-)GAS viability under kanamycin – luminescence, BacTiterGlo, confirmation, counter-screen for streptokinase expression inhibitor project, dose response (AID 1900). Type of assay: functional, organism-based.
Another assay concerns the target T2, Streptokinase A (Streptococcus pyogenes serotype M1, UniProt P10520).
T2 sequence (P10520 whole entry): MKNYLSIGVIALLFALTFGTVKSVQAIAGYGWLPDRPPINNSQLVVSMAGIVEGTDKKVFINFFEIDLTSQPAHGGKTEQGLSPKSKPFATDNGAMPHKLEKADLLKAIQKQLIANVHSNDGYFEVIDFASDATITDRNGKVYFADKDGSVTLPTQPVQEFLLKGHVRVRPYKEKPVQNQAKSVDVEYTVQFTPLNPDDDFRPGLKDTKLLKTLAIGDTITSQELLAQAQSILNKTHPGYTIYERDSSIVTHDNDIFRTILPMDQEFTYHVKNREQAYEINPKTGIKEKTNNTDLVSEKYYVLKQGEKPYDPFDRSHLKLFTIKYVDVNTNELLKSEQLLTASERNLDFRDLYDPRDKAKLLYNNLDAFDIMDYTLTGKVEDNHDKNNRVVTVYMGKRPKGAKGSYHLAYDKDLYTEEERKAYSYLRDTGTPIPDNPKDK
Kind of assay: viability-normalized secreted streptokinase activity reduction – plasminogen activation absorbance, OD405, dose response (AID 1914).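 Also: secreted streptokinase activity via plasminogen activation per viability signal from cell pellet.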 Type of assay: functional, Streptococcus pyogenes M1 GAS.

The next assay deals with Streptococcus. The assay is described as follows: GAS UMAA2166 growth inhibition – luminescence, BacTiterGlo, counter-screen for streptokinase expression inhibitor project, dose response (AID 1915).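 Also: potency for reduction of bacterial viability or growth.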 In kind it is functional, organism-based. (The purpose of a counterscreen is to sort out artefacts and off-target activity.)
Assay [3] in a line: fluconazole-exposed Candida albicans growth modulators – fluorescence, retest, confirmation (AID 2467). In kind it is functional, cell-based.
A short description of assay [4]: NIH-3T3 fibroblast cytotoxicity, dose response, cytotoxicity control, cell-based, fluorescence, Alamar Blue, secondary assay (AID 2327).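 Also: NIH-3T3 mouse fibroblasts cultured with fluconazole at 8 µg/mL.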 Type of assay: functional. In general terms: The colour change of resazurin is a common sign of viable cells or microbes.
The nature of assay [5]: Luminescence Cell-Based Dose Response HTS to Identify Inhibitors of 5'UTR Stem-Loop Driven Prion Protein mRNA Translation in H4 Neuroglioblastoma Cells. [Related pubchem assays: 1827 (Project Summary), 1813 (Primary HTS)]. Type of assay: functional.
A short description of assay [6]: alpha-synuclein stem-loop luciferase translation blockers – H4 neuroglioma cells, luminescence, confirmation (AID 1988). In kind it is functional, cell-based.
Assay [7] in a line: luciferase reporter signal suppression in cells – H4 neuroglioma cells, luminescence, dose response (AID 1990). In kind it is functional, cell-based.
A further assay deals with T3, Cytochrome P450 1A2 (Homo sapiens, UniProt P05177).
T3 sequence (P05177 whole entry): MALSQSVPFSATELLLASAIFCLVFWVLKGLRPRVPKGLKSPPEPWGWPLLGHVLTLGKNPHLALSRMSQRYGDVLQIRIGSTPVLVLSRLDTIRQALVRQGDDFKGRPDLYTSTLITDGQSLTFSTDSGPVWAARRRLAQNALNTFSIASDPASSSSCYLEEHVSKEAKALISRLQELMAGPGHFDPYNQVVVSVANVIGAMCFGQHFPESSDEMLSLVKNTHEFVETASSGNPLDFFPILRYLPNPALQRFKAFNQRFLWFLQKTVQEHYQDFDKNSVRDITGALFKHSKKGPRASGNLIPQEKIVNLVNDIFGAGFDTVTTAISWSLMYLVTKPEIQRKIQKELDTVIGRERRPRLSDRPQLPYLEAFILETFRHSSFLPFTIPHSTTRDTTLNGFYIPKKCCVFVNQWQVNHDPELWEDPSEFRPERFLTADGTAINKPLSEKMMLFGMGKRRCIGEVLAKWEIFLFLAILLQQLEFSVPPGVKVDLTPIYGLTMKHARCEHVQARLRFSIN

Another assay addresses Cytochrome P450 2C19 (Homo sapiens, UniProt P33261). The assay is described as follows: Cytochrome panel assay with activity outcomes. Panel member name: p450-cyp2c19 Compounds with AC50 equal or less than 10 uM are considered active. In kind it is functional. The settings on record: read-out: AC50.
A short description of assay [8]: Luminescence Cell-Based Dose Retest to Confirm Inhibitors of Cancer Stem Cells. [Related pubchem assays (depositor defined):AID2717, AID2721]. Type of assay: functional. The settings on record: Homo sapiens.
In another assay the target is Cytochrome P450 2C9 (Homo sapiens, UniProt P11712).
Sequence of Cytochrome P450 2C9 (P11712 whole entry): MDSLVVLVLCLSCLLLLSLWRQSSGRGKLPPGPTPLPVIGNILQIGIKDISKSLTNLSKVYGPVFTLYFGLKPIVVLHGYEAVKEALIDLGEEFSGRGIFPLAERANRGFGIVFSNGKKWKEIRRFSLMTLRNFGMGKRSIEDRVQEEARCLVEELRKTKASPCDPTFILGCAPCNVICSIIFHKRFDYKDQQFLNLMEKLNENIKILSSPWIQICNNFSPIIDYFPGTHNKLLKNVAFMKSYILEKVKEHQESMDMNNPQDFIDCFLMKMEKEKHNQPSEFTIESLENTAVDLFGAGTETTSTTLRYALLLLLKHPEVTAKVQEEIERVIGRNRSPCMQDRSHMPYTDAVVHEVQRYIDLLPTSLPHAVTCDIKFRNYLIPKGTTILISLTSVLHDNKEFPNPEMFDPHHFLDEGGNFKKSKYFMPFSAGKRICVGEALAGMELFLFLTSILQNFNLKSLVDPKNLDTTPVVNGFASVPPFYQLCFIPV
In a further assay the test system is H4. Kind of assay: Luminescence Cell-Based Dose Response HTS to Identify Activators of 5'UTR Stem-Loop Driven Prion Protein mRNA Translation in H4 Neuroglioblastoma Cells. [Related pubchem assays: 1829 (Project Summary), 1814 (Primary HTS)]. In kind it is functional. The settings on record: Homo sapiens.
A short description of assay [9]: Luminescence Cell-Based Dose Response HTS to Identify Activators of Luciferase Translation or Activity in H4 […] Cells. [Related pubchem assays: 1829 (Project Summary), 1814 (Primary HTS)]. In kind it is functional.

Active and inactive are the calls of the source. Bounds are passed on as bounds.

Sequence of Cytochrome P450 3A4 (P08684 whole entry): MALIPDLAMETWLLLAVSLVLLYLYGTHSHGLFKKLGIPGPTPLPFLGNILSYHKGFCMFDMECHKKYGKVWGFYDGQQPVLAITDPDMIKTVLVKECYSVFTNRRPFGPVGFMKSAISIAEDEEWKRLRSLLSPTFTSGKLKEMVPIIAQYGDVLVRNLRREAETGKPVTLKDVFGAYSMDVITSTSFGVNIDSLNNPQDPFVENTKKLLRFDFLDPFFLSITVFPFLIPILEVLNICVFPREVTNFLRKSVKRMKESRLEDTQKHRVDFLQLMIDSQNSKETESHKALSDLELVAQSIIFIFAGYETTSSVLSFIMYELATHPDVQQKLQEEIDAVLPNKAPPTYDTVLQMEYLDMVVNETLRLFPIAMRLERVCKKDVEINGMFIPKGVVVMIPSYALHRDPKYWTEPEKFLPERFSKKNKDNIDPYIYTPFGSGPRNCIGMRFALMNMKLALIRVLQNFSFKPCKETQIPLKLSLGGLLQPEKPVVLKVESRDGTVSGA
Sequence of Cytochrome P450 2C19 (P33261 whole entry): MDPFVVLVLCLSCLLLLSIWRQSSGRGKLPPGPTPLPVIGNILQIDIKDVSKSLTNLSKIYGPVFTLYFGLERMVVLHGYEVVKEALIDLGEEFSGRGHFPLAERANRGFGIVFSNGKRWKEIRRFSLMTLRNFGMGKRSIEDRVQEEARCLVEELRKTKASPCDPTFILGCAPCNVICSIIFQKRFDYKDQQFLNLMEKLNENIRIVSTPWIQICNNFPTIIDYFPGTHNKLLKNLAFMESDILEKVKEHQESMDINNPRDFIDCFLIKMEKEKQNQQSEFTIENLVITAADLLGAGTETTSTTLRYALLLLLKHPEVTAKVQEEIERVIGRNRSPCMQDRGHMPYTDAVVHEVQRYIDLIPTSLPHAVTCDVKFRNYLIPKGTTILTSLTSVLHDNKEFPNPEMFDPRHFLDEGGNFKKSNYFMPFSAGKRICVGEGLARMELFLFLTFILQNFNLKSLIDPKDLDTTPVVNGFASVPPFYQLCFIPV

In the case of `Cc1cc(NC(=O)C2C3C(=O)N(Cc4ccc(Cl)cc4)C(C(=O)NC(C)(C)C)C34C=CC2(C)O4)no1` (stereo not drawn), the AC50 (commonly the concentration giving half of the maximal activity seen) at Cytochrome P450 3A4 was 25.1 µM (inconclusive). In addition, the EC50 (as a rule, the concentration needed to bring the measured effect to its halfway point) in assay [1] was > 195 µM (not active).
Turning to `CC1CCC(C(=O)c2c(O)oc3ccccc3c2=O)CC1` (stereo not drawn), the EC50 in assay [2] was 10.4 µM (active); on Streptokinase A, > 150 µM (not active); with Streptococcus, 20.3 µM (active); in assay [3], 2.01 µM (active); in assay [4], > 150 µM (inactive).
Consider `COc1ccc(NS(=O)(=O)c2cccc(N3CC(=O)C(c4ccccc4)=C3N)c2)cc1`, for which the 50% effective concentration (EC50) in assay [5], in assay [6] and in [7] was > 120 µM (not active) in each case.
As to `COc1ccc(-n2c(=O)c(-c3ccccc3)nc3cnc(N4CCOCC4)nc32)cc1`, at Cytochrome P450 1A2, the concentration at half-maximal activity (AC50) is 15.8 µM (inconclusive).
For `CNS(=O)(=O)c1ccc(NC(=O)c2cnn3c(C(F)F)cc(-c4ccccc4)nc23)cc1`, the EC50 is 85.3 µM (active) in assay [2]; > 150 µM (not active) at Streptokinase A; 31.8 µM (active) in assay [5]; > 150 µM (not active) in the assay with Streptococcus; 12.1 µM (active) in assay [6]; > 120 µM (not active) in [7].
For `COC(=O)[C@@]1(Cc2ccc(OC)cc2)[C@H]2c3cc(C(=O)N(C)C)n(CCN4CNCC4=O)c3C[C@H]2CN1C(=O)c1ccccc1`, the AC50 on Cytochrome P450 2C19 was 15.8 µM (inconclusive); at Cytochrome P450 1A2, 20 µM (inconclusive).
As for `COc1cccc(Cn2c(=O)c(-c3cccc(C#N)c3)nc3cnc(Nc4ccccc4)nc32)c1`, on Cytochrome P450 3A4, the concentration at half-maximal activity (AC50) is 0.794 µM (inconclusive).
`O=C(CNC(=O)c1ccco1)NCc1nc2ccccc2[nH]1`: the EC50 (in assay [2]; on Streptokinase A; with Streptococcus) was > 150 µM (not active) in each case.
`O=c1c2c(n3cnnc3n1C1CCCCC1)-c1ccccc1CC21CCCCC1`: the EC50 in assay [5], in assay [6] and in [7] was > 120 µM (not active) in each case.
With `c1cn2c(NC3CCCCC3)c(-c3ccc(SC4CCCCC4)cc3)nc2cn1`, the EC50 is 1.01 µM (active) in assay [2], > 150 µM (not active) on Streptokinase A and 4.27 µM (active) in the assay with Streptococcus. In [8], the AC50 is 3.13 µM (active).
Regarding `CCOC(=O)c1ncn2c1[C@H]1CCCN1C(=O)c1cc(OC)ccc1-2`, the AC50 on Cytochrome P450 1A2 was 39.8 µM (inconclusive).
Regarding `CCOCC(=O)Nc1c(C(=O)Nc2ccccc2OC)oc2ccccc12`, at Cytochrome P450 3A4, the half-maximal activity concentration (AC50) was 6.31 µM (inconclusive).
`CC1(C)CC(=O)C(CCCN2C(=O)c3ccccc3C2=O)C(=O)C1`: the concentration at half-maximal activity (AC50) was 39.8 µM (inconclusive) at Cytochrome P450 2C19 and 28.2 µM (inconclusive) at Cytochrome P450 1A2.
Consider `Cc1c(NC(=O)/C(C#N)=C/c2ccc(-c3ccccc3Cl)o2)c(=O)n(-c2ccccc2)n1C`, for which the figures for the EC50 in assay [5], in assay [6] and in assay [7] were > 120 µM (not active), > 120 µM (not active) and 13.4 µM (active), respectively.
On to `COCCn1c(=O)c(-c2ccc(F)c(F)c2)nc2cncnc21`, for which the AC50 on Cytochrome P450 3A4 is 12.6 µM (inconclusive).
`CCOc1ccc(-c2nc(S(=O)(=O)c3ccccc3)c(NCc3cccnc3)o2)cc1`: the concentration giving a half-maximal response (EC50) in [5], in assay [6] and in assay [7] was > 120 µM (not active) throughout.
In the case of `Nc1ccc(S(=O)(=O)c2ccc(NC(=O)c3cccnc3)cc2)cc1`, the AC50 on Cytochrome P450 2C9 is 6.31 µM (inconclusive); at Cytochrome P450 3A4 it was 3.16 µM (inconclusive).
On to `C/C(CCN1CCCc2nc(C)c(C)cc21)=N\O[C@@H](C)c1cc(-c2c(C)cc(C)cc2C)no1`, for which the half-maximal activity concentration (AC50) on Cytochrome P450 3A4 was 5.01 µM (inconclusive).
As for `COc1cccc(Nc2ncc3nc(-c4cc(F)cc(F)c4)c(=O)n(C4CC4)c3n2)c1`, the AC50 on Cytochrome P450 1A2 was 6.31 µM (inconclusive).
Same read-out and setting: the same measure for `c1ccc2c3c([nH]c2c1)[C@@H]1[C@H]2CC[C@H]([C@H]4CCCN[C@H]42)N1CC3`: 15.8 µM (inconclusive); for `O=c1c(-c2ccc(Cl)cc2)nc2cnc(Nc3ccccc3)nc2n1C[C@H]1CCCO1`: 12.6 µM (inconclusive).
Turning to `C=CCn1c2ccccc2c2nnc(S)nc21`, the 50% effective concentration (EC50) was > 120 µM (not active) in assay [5], > 120 µM (not active) in [6] and 17.8 µM (active) in [7].
As for `Cc1ccc(NC(=O)c2nc[nH]c2C(=O)N[C@@H](C)c2ccccc2)cc1`, the EC50 in assay [2] is 1.05 µM (active); on Streptokinase A it was > 150 µM (not active); in [5] it was > 120 µM (not active); in the assay with Streptococcus, 16.9 µM (active); in [6], > 120 µM (not active); in assay [7] it was 17.3 µM (active).
On to `O=C(COc1cccc2cccnc12)Nc1ccccc1`, for which the EC50 is 15 µM (active) with H4 and 15.4 µM (active) in [9].
Regarding `Cc1ccccc1-c1cc(C(=O)Nc2nc3c(s2)CCCC3)c2ccccc2n1`, the concentration at half-maximal activity (AC50) on Cytochrome P450 1A2 was 3.55 µM (inconclusive).
As to `NS(=O)(=O)c1ccc(NC2(C(=O)O)CCCC2)cc1`, the half-maximal activity concentration (AC50) on Cytochrome P450 1A2 was 0.794 µM (inconclusive).
Still for that read-out and setting: the value for `CCCN(CCC)[C@@H]1CCc2c(OC)cccc2[C@@H]1C` was 31.6 µM (inconclusive).
Turning to `CCC(CC)C(=O)Nc1cccc(/C(C)=N\NC(=O)c2ccc(C)s2)c1`, the half-maximal activity concentration (AC50) on Cytochrome P450 2C9 is 0.355 µM (inconclusive); at Cytochrome P450 1A2, 3.16 µM (inconclusive).
Consider `O=C(N/N=C/c1cc([N+](=O)[O-])ccc1O)C(O)(c1ccccc1)c1ccccc1`, for which the EC50 in [2] is 3.11 µM (active); at Streptokinase A it was > 150 µM (not active); with Streptococcus it was 9.11 µM (active); in [3], 2.29 µM (active); in assay [4], > 150 µM (inactive).
Turning to `CCN(CC)S(=O)(=O)c1cccc(-c2nnc(S)n2/N=C/c2ccc(OC)cc2)c1`, the EC50 in assay [5] is > 120 µM (not active); in assay [6] it was 34.8 µM (active); in assay [7], 23.8 µM (active).
`Oc1ccc(CNCc2ccccc2)c2cccnc12`: on Cytochrome P450 1A2, the AC50 is 5.01 µM (inconclusive).
Same read-out and setting: the same measure for `CN1CCN(CCc2ccc(Cl)c(Cl)c2)CC1`: 25.1 µM (inconclusive).
